In US7629318B2, “Immunosuppressant compounds, methods and uses related thereto” (priority 2002, dated 2009):
Where “and” joins values, the source holds several entries; their conditions need not be identical. Equal values may be shown once. Numbered stars: 1 amine (or outer) side, 2 acyl side, 3 side chain; on linkers, the order of the positions; unused ones are H or OH. Square brackets hold non-standard residues; d marks the D form. Peptide text beside a SMILES is read from it. ξ: configuration not given here. Gly(1-amidinopiperidin-4-yl) = N=C(N)N1CCC([C@H](N)C(=O)O)CC1; X1 = CC(C)c1oc([C@H](CO)N[*:1])nc1C(=O)[*:2]; Pro(3R-Ph) = O=C(O)[C@H]1NCC[C@@H]1c1ccccc1; Met(O) = CS(=O)CC[C@H](N)C(=O)O; Tic = O=C(O)[C@@H]1Cc2ccccc2CN1; Cha = N[C@@H](CC1CCCCC1)C(=O)O; ξDisc = O=C(O)C1NCc2ccccc21

Legend:
[1] = Stability of compounds in rat blood plasma; type: in vitro ADME
How it was run: (§1)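 Compounds at 5 μM final in rat, mouse or human plasma, incubated at 37 °C and sampled at 0, 6 and 24 h. Proteins precipitated with acetonitrile and the supernatant dried and reconstituted in 50% acetonitrile/0.1% TFA. PBS controls run for unstable compounds.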

[2] = Stability of compounds in mouse blood plasma; type: in vitro ADME
How it was run: as §1

[3] = biological target: DR1 (DRA1*0101 DRB1*0101) (Homo sapiens, UniProt P01903+P01911, A100R/D57E/F55L/F60I/F76Y/I96L/L162R/M171V/P40L/Q125E/R42F/V115G/Y59C); assay: Competitive binding to MHC-II protein DR1; details: Protein binding IC50 (nM) 0101, 0101
How it was run: (§2)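 Each MHC-II allele incubated with compound 16 hours at room temperature in duplicate; controls lacked compound, or both compound and MHC-II. Complexes captured 2 h at 4 °C, bound biotinylated peptide detected via europium-streptavidin and DELFIA enhancement, time-resolved fluorescence read at ex 340/em 613 (615) nm.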

[4] = biological target: T1, LG2 (DR1: DRA1*0101 DRB1*0101) cells (Homo sapiens, UniProt P01903+P01911, A100R/D57E/F55L/F60I/F76Y/I96L/L162R/M171V/P40L/Q125E/R42F/V115G/Y59C); assay: Competitive binding to MHC II proteins expressed on LG2 cells; type: cell-based; details: Cell binding IC50 (uM) LG2 (0101), LG2 (0101)
T1 construct: MHC II Proteins Expressed on PRIESS and LG2 Cells; endogenous in cells; host or cells: LG2 cells
Method: (§3) For use in the binding assay the cells were re-suspended in medium containing 1% FCS at a density of 2.5×10^6 cells/ml.
(§4) The assay was performed in sterile 96 well polystyrene microtiter plates. A 10 fold dilution series of compounds (16 nM-1615 μM) in 1% FCS was prepared from 5 or 10 mM compound stock solutions in 10% DMSO/water. 50 μl of each compound dilution were added in duplicates to 50 μl of a 16 μM solution of indicator peptide in 1% FCS. Cell binding was initiated by adding 100 μl of 2.5×10^6 cells/ml 1% FCS to each well. Controls were included containing the DMSO concentration present in the solution with the highest compound concentration. The cells were incubated at 37° C., 6% CO2. After 4 hours the cells were washed with 200 μl PBS and lysed in 200 μl lysis buffer (50 mM sodium phosphate, 150 mM sodium chloride, 1% (w/v) NP-40, 25 mM iodoacetamide, 1 mM PMSF, 3.1% protease inhibitor cocktail: 0.32 g/l of Chymostatin, Antipain, Pepstatin A, Soybean trypsin inhibitor and Leupeptin each, pH 7.5) for 10 min.
(§5) After washing with PBS, 190 μl of cell lysate were transferred to the appropriate wells of the capture plate and incubated for 2 h at 4° C. The wells were washed six times with 200 μl/well cooled (4 to 8° C.) of 1×DELFIA wash (Wallac-ADL-GmbH, Freiburg), incubated with 100 μl of cooled Europium-streptavidin conjugate (Wallac-ADL-GmbH, Freiburg; diluted 1/1000 with DELFIA assay buffer) for 30 minutes at 4° C., again washed six times with cooled 1×DELFIA wash and, finally, incubated with 200 μl cooled DELFIA enhancement solution (Wallac-ADL-GmbH, Freiburg) for one hour at room temperature before reading the time-resolved europium fluorescence at λex Eu^3+: 340 nm and λem Eu^3+: 613 (615) nm (Wallac Victor^2 1420 Multilabel Counter, Wallac-ADL-GmbH, Freiburg).

[5] = biological target: DR4Dw14 (DRA1*0101 DRB1*0404) (Homo sapiens, UniProt P01903+P01911, A100R/A169T/F76Y/I96L/K127E/L162R/M171V/N62H/P40V/Q125Y/R42H/S133A/S149N/S66Y/V209L/W38E); assay: Competitive binding to MHC-II protein DR4Dw14; details: 0404; read-out: Protein binding IC50 (nM) 0404
How it was run: as §2

[6] = biological target: T2, Priess (DR4Dw4: DRA1*0101 DRB1*0401) cells (Homo sapiens, UniProt P01903+P01911, A100K/A169T/F76Y/I96L/K127E/L162R/M171V/N62H/P40V/Q125Y/R42H/S133A/S149N/S66Y/V115G/V209L/W38E); assay: Competitive binding to MHC II proteins expressed on Priess cells; type: cell-based
T2 construct: MHC II Proteins Expressed on PRIESS and LG2 Cells; endogenous in cells; host or cells: Priess cells
Method: as §3, §4, §5

[7] = Stability of compounds in human blood plasma; type: in vitro ADME
How it was run: as §1

[8] = biological target: Cathepsin D (EC 3.4.23.5 from bovine spleen) (Bos taurus, UniProt P80209)
Method: The stability of the peptidomimetic compounds towards lysosomal degradation was examined by incubation with Cathepsin B1 (EC 3.4.22.1 from bovine spleen; Sigma-Aldrich, Taufkirchen; dissolved at 10000 U/l in ddH2O) and D (EC 3.4.23.5 from bovine spleen; Sigma-Aldrich, Taufkirchen; dissolved at 10000 U/l in ddH2O) for four hours at 37° C. using a compound concentration of 50 μM and an enzyme/substrate ratio of 0.4 U/μmol. The samples contained 25 ppm 4-isopropyl benzyl alcohol (IPBA; Sigma-Aldrich, Taufkirchen) as internal standard.
Assay buffer was prepared by adding 35 μl of a 1% IPBA in DMSO solution and 28 μl of a 10000 U/l Cathepsin B1 or Cathepsin D stock solution to 14 ml of 100 mM sodium acetate, 1 mM EDTA, 1 mM DTT, pH 5.00 or 100 mM sodium acetate, pH 4.50, respectively. 8.8 μl of a 5 mM (or 4.4 μl of a 10 mM) compound stock solution (in 10% DMSO/water) were placed into a 1.5 ml Eppendorf tube. The reaction was started by adding 875 μl fully supplemented assay buffer to each tube, whirlmixing and incubation at 37° C. At 0 and 4 hours 400 μl samples were taken and the enzyme was inactivated by addition of 40 μl […] TFA aq. The samples were kept frozen at −20° C. until analysis by RP-HPLC (200 μl injection volume; Nucleosil 100-5 C18, 12.5×4.6 cm; Gradient: 20-50% acetonitrile in 30 min).
Compounds co-eluting with the internal standard during RP-HPLC analysis were tested without the standard as Example 16.

[9] = biological target: Cathepsin B1 (EC 3.4.22.1 from bovine spleen) (Bos taurus, UniProt P07688); details: Cathepsin B, 4 h
[10] = biological target: DR4Dw4 (DRA1*0101 DRB1*0401) (Homo sapiens, UniProt P01903+P01911, A100K/A169T/F76Y/I96L/K127E/L162R/M171V/N62H/P40V/Q125Y/R42H/S133A/S149N/S66Y/V115G/V209L/W38E); assay: Competitive binding to MHC-II protein DR4Dw4
How it was run: as §2

[11] = test system: T-cell proliferation, DR14-LN

Row | Compound | Stability (Arbitrary units) Rat 6 h [1] | Stability (Arbitrary units) Rat 24 h [1] | Stability (Arbitrary units) Mouse 6 h [2] | Stability (Arbitrary units) Mouse 24 h [2] | IC50 [3] | IC50 [4] | IC50 [5] | IC50 [6] | Stability (Arbitrary units) Human 6 h [7] | Stability (Arbitrary units) Human 24 h [7] | Stability (Arbitrary units) Cath D 4 h [8] | Stability (Arbitrary units) Cath B 4 h [9] | IC50 [10] | Immunsupressive assays DR14-LN (Max) % Inhibition ([11]; maximal inhibition) | IC50 ([11]; read-out: Immunsupressive assays DR14-LN (IC50))
1 | CC(=O)N[C@@H](CC1CCCCC1)C(=O)N[C@@H](CCCNC(=N)N)C(=O)N1Cc2ccccc2C[C@H]1C(=O)N[C@@H](CC[S+](C)[O-])C(=O)N1CC[C@H](c2ccccc2)[C@H]1C(=O)N[C@@H](CO)c1nc(C(=O)N(C)C)c(C(C)C)o1 (stereo partly drawn) [Compound P43, Ac-Cha-Arg-Tic-Met(O)-βPhPro-[S(oxaz)L]-NMe2] (Ac-[Cha]R[Tic][Met(O)][Pro(3R-Ph)][X1]-NMe2) | 96 Arbitrary units | 71 Arbitrary units | 96 Arbitrary units | 82 Arbitrary units | 380 nM | 13 µM | 1700 nM | 3.1 µM | 134 Arbitrary units | 131 Arbitrary units | 101 Arbitrary units | 96 Arbitrary units | 0.32 µM |  | 
2 | CSCC[C@H](NC(=O)[C@@H]1Cc2ccccc2CN1C(=O)[C@@H](NC(=O)[C@H](CC1CCCCC1)NC(C)=O)C1CCN(C(=N)N)CC1)C(=O)N1CC[C@H](c2ccccc2)[C@H]1C(N)=O [Compound P80, Ac-Cha-Gpg-Tic-Met-βPhProNH2] (Ac-[Cha][Gly(1-amidinopiperidin-4-yl)][Tic]M[Pro(3R-Ph)]-NH2) | 102 Arbitrary units | 39 Arbitrary units | 106 Arbitrary units | 123 Arbitrary units | 550 nM | 2.7 µM | 470 nM | 2.7 µM | 139 Arbitrary units | 134 Arbitrary units | 84 Arbitrary units | 90 Arbitrary units | 0.67 µM | 88% | 94 µM
3 | CSCC[C@H](NC(=O)[C@@H]1Cc2ccccc2CN1C(=O)[C@@H](NC(=O)[C@H](CC1CCCCC1)NC(C)=O)C1CCN(C(=N)N)CC1)C(N)=O [Compound P67, Ac-Cha-Gpg-Tic-Met-NH2] (Ac-[Cha][Gly(1-amidinopiperidin-4-yl)][Tic]M-NH2) | 10 Arbitrary units | 34 Arbitrary units | 71 Arbitrary units | 16 Arbitrary units | 120 nM | 4.5 µM | 1060 nM and 1080 nM | 4.5 µM | 97 Arbitrary units | 100 Arbitrary units | 113 Arbitrary units | 58 Arbitrary units | 0.41 µM |  | 
4 | CSCC[C@H](NC(=O)C1c2ccccc2CN1C(=O)[C@H](CCCNC(=N)N)NC(=O)[C@H](CC1CCCCC1)NC(C)=O)C(=O)N1CC[C@H](c2ccccc2)[C@H]1C(=O)N[C@@H](CO)c1nc(C(=O)N(C)C)c(C(C)C)o1 (stereo partly drawn) [Compound P40-1, Ac-Cha-Arg-Disc-Met-βPhPro-[S(oxaz)L]NMe2] (Ac-[Cha]R[ξDisc]M[Pro(3R-Ph)][X1]-NMe2) | 111 Arbitrary units | 71 Arbitrary units |  |  | 140 nM | 8 µM | 98 nM | 3 µM | 108 Arbitrary units | 103 Arbitrary units | 93 Arbitrary units | 99 Arbitrary units | 0.27 µM |  | 
